Source: patent US8912144B2, “Method for treating stroke via administration of NEP1-40 and inosine” (Children's Medical Center Corporation, priority 2003, dated 2014)

Test system: corticospinal neurons (CSNs/CSMNs)
Test: Laser-capture microdissection and Illumina microarray gene expression in corticospinal neurons contralateral to stroke
Assay type: in vivo, rat
Method: In a separate group of animals (n=20), layer V pyramidal cells of the sensorimotor cortex were retrogradely labeled by injecting Alexa-Fluor-488-conjugated cholera toxin B subunit (CTB; 300 U/μl in sterile saline) into the cervical spinal cord. For this, animals were anesthetized with a combination of ketamine and Domitor (medetomidine) and a laminectomy was performed at the cervical level of the spinal cord (C2-C4). CTB was stereotaxically delivered into four sites lateral to the corticospinal tract. Injections (1.3 μl) were spaced 1 mm apart on the rostro-caudal axis, and were made 0.5 mm to the left and right of the midline. After allowing two weeks for transport of the tracer, we performed either sham surgery with no treatment (n=6) or stroke surgery combined with saline (n=3) or inosine (n=4) treatment as described above. Seven days later, animals were decapitated under transient gas anesthesia, brains were removed and rinsed in cold RPMI medium, and a tissue block containing the sensorimotor cortex was dissected and placed in OCT Tissue Tek Medium (Sakura Finetek USA Inc., CA) on dry ice within five minutes of death. Ten μm sections were cut onto precleaned Gold Seal RITE-ON glass slides (Gold Seal Prod-ucts, Portsmouth, N.H.), placed on dry ice, and rapidly stored at −80° C.
Slide-mounted sections were thawed and dehydrated in RNAse-free ethanol gradients and xylene. Retro-gradely labeled, fluorescent cortical pyramidal cells in the undamaged hemisphere were individually captured using the Arcturus VERITAS system. ≧500 cells were collected from each animal and stored in Arcturus extraction buffer at −80° C. Total RNA was extracted from cells using the Micro-to-Midi TotalRNA Purification System (Invitrogen, Carlsbad Calif.) and double-amplified using the TargetAmp 2-Round Aminoallyl-aRNA Amplification kit 1.0 (Epicentre, Madison, Wis.). Amplified RNA was checked for average fragment length using the Agilent RNA 6000 Nano LabChip kit (Agilent Technologies, Santa Clara, Calif.) and then biotinylated and hybridized (1 μg) on Illumina RatRef-12 Expression BeadChip arrays (Illumina, San Diego Calif.), querying the expression of >22,000 RefSeq-curated rat transcripts. Results were obtained from a total of 15 samples representing 6 untreated controls, 4 animals with stroke treated with saline and 5 animals with stroke treated with inosine. Slides were processed and scanned with Illumina BeadStation platform according to the manufacturer protocol.
Raw data was analyzed using Bioconductor packages (www.bioconductor.org, (Gentleman et al., 2004)). Low level quality-control analysis was performed using inter-array Pearson correlation and clustering based on variance. Two arrays (1 saline and 1 inosine-treated) were outliers and were excluded from the analysis. Data was normalized using quantile normalization, and analysis of differential expression was performed using a linear model fitting (LIMMA package, (Smyth, 2005). Differentially expressed genes were classified according to gene ontology using Bioconductor packages and online tools (DAVID, http://david.abcc.ncifcrf.gov/). Pathway analysis was carried out using Ingenuity Pathway Analysis (Ingenuity Systems, www.ingenuity.com).

In the case of OC[C@H]1O[C@@H](n2cnc3c(O)ncnc32)[C@H](O)[C@@H]1O [inosine], the “Fold-Induction Stroke, ino vs. cntrl” value (A2m ILMN_70335) was 4.03, the “Signal Intensity Inosine” value (A2m ILMN_70335) was 1924 and the “Fold-Induction Stroke, ino vs. cntrl” value (ADRP ILMN_47969) was 4.12. For the same molecule, the “Signal Intensity Inosine” value (ADRP ILMN_47969) was 3202, the “Fold-Induction Stroke, ino vs. cntrl” value (Adn ILMN_58846) was 4.53 and the “Signal Intensity Inosine” value (Adn ILMN_58846) was 2287. For the same molecule, the “Fold-Induction Stroke, ino vs. cntrl” value (Aif1 ILMN_47707) was 2.67, the “Signal Intensity Inosine” value (Aif1 ILMN_47707) was 4301 and the “Fold-Induction Stroke, ino vs. cntrl” value (Arhgdib ILMN_66176) was 4.08. For the same molecule, the “Signal Intensity Inosine” value (Arhgdib ILMN_66176) was 3057, the “Fold-Induction Stroke, ino vs. cntrl” value (Arpc1b ILMN_69642) was 2.61 and the “Signal Intensity Inosine” value (Arpc1b ILMN_69642) was 758. For the same molecule, the “Fold-Induction Stroke, ino vs. cntrl” value (Asb2 ILMN_50991) was 3.27, the “Signal Intensity Inosine” value (Asb2 ILMN_50991) was 615 and the “Fold-Induction Stroke, ino vs. cntrl” value (Aurkc ILMN_69140) was 1.43. For the same molecule, the “Signal Intensity Inosine” value (Aurkc ILMN_69140) was 1172, the “Fold-Induction Stroke, ino vs. cntrl” value (Bcl2a1 ILMN_62703) was 3.34 and the “Signal Intensity Inosine” value (Bcl2a1 ILMN_62703) was 613. The “Fold-Induction Stroke, ino vs. cntrl” value (Btf3 ILMN_62809) was 0.43, the “Signal Intensity Inosine” value (Btf3 ILMN_62809) was 787 and the “Fold-Induction Stroke, ino vs. cntrl” value (C1qb ILMN_61448) was 2.76. For the same molecule, the “Signal Intensity Inosine” value (C1qb ILMN_61448) was 1832, the “Fold-Induction Stroke, ino vs. cntrl” value (C1qg ILMN_55502) was 3.66 and the “Signal Intensity Inosine” value (C1qg ILMN_55502) was 2499. For the same molecule, the “Fold-Induction Stroke, ino vs. cntrl” value (C2 ILMN_63608) was 3.12, the “Signal Intensity Inosine” value (C2 ILMN_63608) was 4113 and the “Fold-Induction Stroke, ino vs. cntrl” value (C4-2 ILMN_59751) was 2.95. The “Signal Intensity Inosine” value (C4-2 ILMN_59751) was 2409, the “Fold-Induction Stroke, ino vs. cntrl” value (Card9 ILMN_62382) was 2.83 and the “Signal Intensity Inosine” value (Card9 ILMN_62382) was 865. The “Fold-Induction Stroke, ino vs. cntrl” value (Cd68 ILMN_60003) was 3.88, the “Signal Intensity Inosine” value (Cd68 ILMN_60003) was 2117 and the “Fold-Induction Stroke, ino vs. cntrl” value (Cd151 ILMN_62725) was 1.50. The “Signal Intensity Inosine” value (Cd151 ILMN_62725) was 1171, the “Fold-Induction Stroke, ino vs. cntrl” value (Cdk5rap2 ILMN_57761) was 1.68 and the “Signal Intensity Inosine” value (Cdk5rap2 ILMN_57761) was 1377. For the same molecule, the “Fold-Induction Stroke, ino vs. cntrl” value (Chd4 ILMN_55276) was 1.26, the “Signal Intensity Inosine” value (Chd4 ILMN_55276) was 7413 and the “Fold-Induction Stroke, ino vs. cntrl” value (Cml1 ILMN_50957) was 1.08. The “Signal Intensity Inosine” value (Cml1 ILMN_50957) was 275, the “Fold-Induction Stroke, ino vs. cntrl” value (Comt ILMN_48330) was 1.09 and the “Signal Intensity Inosine” value (Comt ILMN_48330) was 400. The “Fold-Induction Stroke, ino vs. cntrl” value (Crabp2 ILMN_48069) was 2.62, the “Signal Intensity Inosine” value (Crabp2 ILMN_48069) was 1006 and the “Fold-Induction Stroke, ino vs. cntrl” value (Cyba ILMN_65212) was 4.04. The “Signal Intensity Inosine” value (Cyba ILMN_65212) was 2617, the “Fold-Induction Stroke, ino vs. cntrl” value (Dhrsx ILMN_56966) was 1.38 and the “Signal Intensity Inosine” value (Dhrsx ILMN_56966) was 8022. The “Fold-Induction Stroke, ino vs. cntrl” value (Dtx2 ILMN_65350) was 2.24, the “Signal Intensity Inosine” value (Dtx2 ILMN_65350) was 1792 and the “Fold-Induction Stroke, ino vs. cntrl” value (Esd ILMN_57701) was 0.44. The “Signal Intensity Inosine” value (Esd ILMN_57701) was 1416, the “Fold-Induction Stroke, ino vs. cntrl” value (Ftl1 ILMN_62100) was 2.24 and the “Signal Intensity Inosine” value (Ftl1 ILMN_62100) was 11718. The “Fold-Induction Stroke, ino vs. cntrl” value (Fxr2h ILMN_59638) was 1.64, the “Signal Intensity Inosine” value (Fxr2h ILMN_59638) was 638 and the “Fold-Induction Stroke, ino vs. cntrl” value (Gfap ILMN_68224) was 2.88. For the same molecule, the “Signal Intensity Inosine” value (Gfap ILMN_68224) was 23099, the “Fold-induction CSMNs: Aif1” value (ILMN_47707, over and above inosine's effect of decreasing stroke-induced changes) was 2.33 fold and the “Fold-Induction Stroke, ino vs. cntrl, Uxs1” value (ILMN_47889) was 0.66. The “Signal Intensity, Uxs1” value (ILMN_47889, inosine after stroke) was 2868, the “Fold-Induction Stroke, ino vs. cntrl, LOC366193” value (ILMN_48004) was 0.67 and the “Signal Intensity, LOC366193” value (ILMN_48004, inosine after stroke) was 2396. The “Fold-induction CSMNs: Crabp2” value (ILMN_48069, over and above inosine's effect of decreasing stroke-induced changes) was 2.12 fold, the “Fold-induction CSMNs: Ifitm3” value (ILMN_48088, over and above inosine's effect of decreasing stroke-induced changes) was 2.74 fold and the “Fold-Induction Stroke, ino vs. cntrl, Ap3s1” value (ILMN_48320) was 0.55. The “Signal Intensity, Ap3s1” value (ILMN_48320, inosine after stroke) was 285, the “Fold-Induction Stroke, ino vs. cntrl, LOC499423” value (ILMN_48323) was 0.53 and the “Signal Intensity, LOC499423” value (ILMN_48323, inosine after stroke) was 1043. The “Fold-Induction Stroke, ino vs. cntrl, Wee1” value (ILMN_48447) was 0.83, the “Signal Intensity, Wee1” value (ILMN_48447, inosine after stroke) was 367 and the “Fold-Induction Stroke, ino vs. cntrl, Sfrs10” value (ILMN_48507) was 0.72.
